Active and inactive are the calls of the source. No cut-off for these calls is given here.
What was measured:
[1] = Bioavailability in C57BL/6J mouse at 5 mg/kg, ISIN (Intranasal) measured up to 24 hrs by LC-MS/MS analysis; type: ADME, organism-based; details: in vivo, inhaled_or_intranasal
SARS-CoV-2 [2] = test: Antiviral activity against SARS-CoV-2 JN.1 infected in human Calu-3 cells preincubated with cells for 3 hrs followed by viral infection and measured after 48 hrs by immunostaining based analysis; type: functional, organism-based; details: Severe acute respiratory syndrome coronavirus 2, JN.1, Calu-3
[3] = biological target: T1, Transmembrane protease serine 2 (Homo sapiens, UniProt O15393); test: Inhibition of recombinant TMPRSS2 (unknown origin) extracted from baculovirus infected in Sf9 cells using Boc-QAR-AMC as substrate measured after 1 hr by fluorescence based analysis
T1 sequence (O15393 1-255 limits assumed): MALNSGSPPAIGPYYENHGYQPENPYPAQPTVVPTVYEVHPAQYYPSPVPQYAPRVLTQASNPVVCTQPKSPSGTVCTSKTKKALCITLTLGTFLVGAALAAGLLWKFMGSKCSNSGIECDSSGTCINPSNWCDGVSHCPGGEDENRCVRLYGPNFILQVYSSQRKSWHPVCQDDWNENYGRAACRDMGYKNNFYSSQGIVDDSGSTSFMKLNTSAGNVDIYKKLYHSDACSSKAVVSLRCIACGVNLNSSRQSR
T1 sequence (O15393 256-492 limits assumed): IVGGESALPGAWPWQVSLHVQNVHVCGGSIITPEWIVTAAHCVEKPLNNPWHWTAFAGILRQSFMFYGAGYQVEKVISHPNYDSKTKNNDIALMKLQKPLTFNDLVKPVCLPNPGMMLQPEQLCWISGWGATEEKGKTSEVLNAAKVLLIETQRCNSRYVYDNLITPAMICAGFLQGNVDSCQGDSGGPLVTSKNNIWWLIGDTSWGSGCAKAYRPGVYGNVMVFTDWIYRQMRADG

[4] = Toxicity in C57BL/6J mouse at 5 mg/kg, ISIN (Intranasal) measured for 24 hrs; type: organism-based; details: in vivo, inhaled_or_intranasal
[5] = biological target: T1, Transmembrane protease serine 2; test: Inhibition of full length TMPRSS2 (unknown origin) expressed in African green monkey Vero E6 cells using Boc-QAR-AMC as substrate incubated for 24 hrs by microplate reader analysis; type: cell-based
SARS-CoV-2 [6] = test: Antiviral activity against SARS-CoV-2 EG.5.1 infected in human Calu-3 cells assessed as reduction in residual intracellular nucleocapsid value at 1 uM preincubated with cells for 3 hrs followed by viral infection and measured after 48 hrs by immunostaining based analysis relative to control; type: functional, Severe acute respiratory syndrome coronavirus 2; details: time 51 hrs
SARS-CoV-2 [7] = test: Antiviral activity against SARS-CoV-2 EG.5.1 infected in human Calu-3 cells preincubated with cells for 3 hrs followed by viral infection and measured after 48 hrs by immunostaining based analysis; type: functional, organism-based; details: Severe acute respiratory syndrome coronavirus 2, EG.5.1, Calu-3
SARS-CoV-2 [8] = test: Antiviral activity against SARS-CoV-2 EG.5.1 infected in human Calu-3 cells assessed as reduction in residual intracellular nucleocapsid value at 1 uM preincubated with cells for 3 hrs followed by viral infection and measured after 48 hrs by immunostaining based analysis; type: functional, organism-based; details: Severe acute respiratory syndrome coronavirus 2, time 51.0 hrs
[9] = Drug concentration in C57BL/6J mouse plasma measured after 15 mins; type: ADME; details: read-out: Drug uptake
[10] = Toxicity in C57BL/6J mouse at 5 mg/kg, iv measured for 24 hrs; type: organism-based; details: in vivo
[11] = Half life in C57BL/6J mouse plasma at 5 mg/kg, ISIN (Intranasal) measured up to 24 hrs by LC-MS/MS analysis; type: ADME, organism-based; details: in vivo, inhaled_or_intranasal
[12] = Cytotoxicity against human Calu-3 cells assessed as cell viability measured after 72 hrs by luminescence based Cell-Titer-Glo assay; type: toxicity
SARS-CoV-2 [13] = test: Antiviral activity against SARS-CoV-2 pseudotyped with delta spike protein infected in human Calu-3 cells assessed as prevention of virus-like particle cellular entry at 300 nM preincubated with cells for 3 hrs followed by viral infection and measured after 72 hrs by ONE-Glo-Ex luciferase assay relative to control; type: functional, Severe acute respiratory syndrome coronavirus 2; details: time 75 hrs
[14] = biological target: T1, Transmembrane protease serine 2; test: Inhibition of recombinant das TMPRSS2 (unknown origin) extracted from baculovirus infected in Sf9 cells assessed as inhibition constant using Boc-QAR-AMC as substrate measured after 1 hr by fluorescence based analysis
[15] = biological target: T1, Transmembrane protease serine 2; test: Inhibition of recombinant TMPRSS2 (unknown origin) extracted from baculovirus infected in Sf9 cells assessed as residual activity using Boc-QAR-AMC as substrate at 1 nM measured after 1 hr by fluorescence based analysis relative to control
[16] = Half life in C57BL/6J mouse plasma at 5 mg/kg, iv measured up to 24 hrs by LC-MS/MS analysis; type: ADME, organism-based; details: in vivo
Procathepsin L = Procathepsin L (Homo sapiens, UniProt P07711); test: Inhibition of recombinant human C-terminal 6 his-tagged Cathepsin L assessed as inhibition constant using Z-LR-AMC as peptide substrate incubated for 1 hr by fluorescence based analysis
Chain of Procathepsin L (P07711 114-333 limits assumed): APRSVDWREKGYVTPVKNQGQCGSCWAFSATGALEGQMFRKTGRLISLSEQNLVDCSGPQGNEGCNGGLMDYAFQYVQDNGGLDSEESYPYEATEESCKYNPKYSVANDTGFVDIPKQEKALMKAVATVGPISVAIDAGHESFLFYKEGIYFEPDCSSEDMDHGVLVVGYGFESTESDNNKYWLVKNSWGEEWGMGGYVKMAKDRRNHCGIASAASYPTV

Calu-3 = test: Cytotoxicity against human Calu-3 cells assessed as cell viability at 10 uM measured after 72 hrs by luminescence based Cell-Titer-Glo assay; type: toxicity; details: calu-3, 72 h

## N=C(N)NCCC[C@H](NC(=O)[C@H](Cc1ccccc1)NC(=O)[C@H](CCC(N)=O)NC(=O)OCc1ccccc1)C(=O)c1nccs1
[1]
  F: 10.9%
SARS-CoV-2 [2]
  EC50: 0.09 nM
[3]
  IC50: 0.35 nM
[4]
  Activity: Non-toxic
[5]
  IC50: 0.59 nM
SARS-CoV-2 [6]
  Activity: 2.2%
SARS-CoV-2 [7]
  EC50: 0.3 nM
SARS-CoV-2 [8]
  Activity: Active
[9]
  concentration at 0.25 h: 182 ng/mL
[10]
  Activity: Non-toxic
[11]
  t1/2: 1.8 h
[12]
  CC50 at 72 h: 110000 nM
SARS-CoV-2 [13]
  Activity: 13%
[14]
  Ki: 0.03 nM
[15]
  Activity: 3%
[16]
  t1/2: 4.79 h
Procathepsin L
  inhibition: inactive
Calu-3
  Activity: Non-toxic
